One data set deals with hAM1 receptor (Homo sapiens, UniProt O60895+Q16602). Description: cAMP assay for in vitro receptor activation, hAM1-R. The settings on record: cAMP assay, hAM1 receptor; read-out: hAM1R EC50. The format is cell-based. The essentials: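 cAMP accumulation was measured in a monoclonal cell line stably overexpressing the hAM1 receptor. Frozen aliquots were thawed and plated at 8000 cells/well in DPBS containing 0.05% casein and 0.5 mM IBMX.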
(In general: Changes in cAMP serve as a functional read-out for many G protein-coupled receptors.)

A short description of data set [1]: Physical stability of peptide analogues (Thioflavin T fibrillation). The settings on record: maximum ThT signal normalized between hAMY maximum and buffer background; 40° C., shaking, four days; pH 7 per table title. In kind it is physicochemical. The essentials:
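Samples are stressed at 40 °C for four days, being shaken at 700 rpm before each 10-min fluorescence reading of 4 μM Thioflavin T. Buffers were pH 4 acetate or pH 7 phosphate. Reported values are smoothed maximum ThT signals as a percentage of the hAMY-to-background range.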

Another data set has as its target T1, hAMY3 receptor (Homo sapiens, UniProt O60896+P30988).
T1 sequence (P30988 25-474): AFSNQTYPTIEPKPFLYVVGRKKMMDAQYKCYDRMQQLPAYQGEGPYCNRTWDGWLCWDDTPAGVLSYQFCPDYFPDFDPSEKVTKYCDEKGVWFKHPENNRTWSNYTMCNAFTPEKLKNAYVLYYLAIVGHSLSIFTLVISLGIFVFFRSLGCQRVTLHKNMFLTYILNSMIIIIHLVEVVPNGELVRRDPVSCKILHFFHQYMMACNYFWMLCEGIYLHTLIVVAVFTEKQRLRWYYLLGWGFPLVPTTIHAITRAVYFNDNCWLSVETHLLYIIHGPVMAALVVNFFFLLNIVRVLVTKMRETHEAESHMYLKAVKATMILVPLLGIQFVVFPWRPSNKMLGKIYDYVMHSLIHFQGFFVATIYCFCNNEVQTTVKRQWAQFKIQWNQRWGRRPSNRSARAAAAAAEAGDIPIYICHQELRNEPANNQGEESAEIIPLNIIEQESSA
T1 sequence (O60896 24-148 partner): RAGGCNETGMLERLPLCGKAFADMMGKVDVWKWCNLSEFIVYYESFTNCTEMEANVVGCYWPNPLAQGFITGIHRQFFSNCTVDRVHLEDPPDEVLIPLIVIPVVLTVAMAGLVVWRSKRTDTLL
Description: cAMP assay for in vitro receptor activation, hAMY3-R. The format is cell-based. The settings on record: cAMP assay, hAMY3 receptor; read-out: hAMY3R EC50. The essentials:
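Thawed cells from a sub-cloned monoclonal hAMY3-overexpressing line are plated in DPBS containing 0.05% casein and 0.5 mM IBMX. Test compounds are added immediately at graded doses for 30 min at room temperature. Reagents for cAMP detection are then added, and TR-FRET is recorded after one hour.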

Each structure is given as a SMILES string. Bridge positions count the residues as written; N and C are the ends. Square brackets hold non-standard residues; d marks the D form. Peptide text beside a SMILES is read from it. Hyp = O=C(O)[C@@H]1C[C@@H](O)CN1

hAM1 receptor, sequence (Q16602 23-461): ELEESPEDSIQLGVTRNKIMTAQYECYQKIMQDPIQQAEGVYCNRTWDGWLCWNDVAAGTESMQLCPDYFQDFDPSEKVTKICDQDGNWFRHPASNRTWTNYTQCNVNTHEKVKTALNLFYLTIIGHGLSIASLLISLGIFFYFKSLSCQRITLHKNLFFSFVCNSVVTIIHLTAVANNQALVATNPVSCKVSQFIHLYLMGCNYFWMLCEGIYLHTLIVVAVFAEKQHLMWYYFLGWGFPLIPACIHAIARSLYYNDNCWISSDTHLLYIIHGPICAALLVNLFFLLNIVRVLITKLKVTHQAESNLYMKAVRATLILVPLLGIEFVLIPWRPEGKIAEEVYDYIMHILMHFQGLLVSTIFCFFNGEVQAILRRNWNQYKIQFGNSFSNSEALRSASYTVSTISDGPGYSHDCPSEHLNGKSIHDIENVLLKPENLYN
hAM1 receptor, sequence (O60895 43-175 partner): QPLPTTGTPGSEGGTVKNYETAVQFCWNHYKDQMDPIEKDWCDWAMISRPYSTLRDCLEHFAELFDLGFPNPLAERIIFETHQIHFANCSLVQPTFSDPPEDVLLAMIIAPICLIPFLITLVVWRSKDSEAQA

Usually EC50 stands for the concentration that produces a half-maximal response. For `CC[C@H](C)[C@H](NC(=O)[C@H](CCC(N)=O)NC(=O)[C@H](Cc1c[nH]cn1)NC(=O)[C@H](C)NC(=O)[C@H](CC(C)C)NC(=O)[C@H](CCCNC(=N)N)NC(=O)[C@H](CCC(N)=O)NC(=O)[C@@H](NC(=O)[C@@H](NC(=O)[C@@H]1CSSC[C@H](NC(=O)[C@@H](N)CCCCN)C(=O)N[C@@H](CC(N)=O)C(=O)N[C@@H]([C@@H](C)O)C(=O)N[C@@H](C)C(=O)N[C@@H]([C@@H](C)O)C(=O)N1)[C@@H](C)O)C(C)C)C(=O)N[C@@H](Cc1ccc(O)cc1)C(=O)N[C@@H](CCC(N)=O)C(=O)N[C@@H](Cc1ccccc1)C(=O)N[C@H](C(=O)N[C@@H](CC(=O)O)C(=O)N[C@@H](CCCCN)C(=O)N[C@@H](C)C(=O)N[C@@H](CCCCN)C(=O)N[C@@H](CC(=O)O)C(=O)N[C@@H](CC(N)=O)C(=O)N[C@H](C(=O)N[C@@H](C)C(=O)N1CCC[C@H]1C(=O)N1CCC[C@H]1C(=O)N[C@H](C(=O)N[C@@H](CC(N)=O)C(=O)N[C@H](C(=O)NCC(=O)N[C@@H](CO)C(=O)N[C@@H](CC(N)=O)C(=O)NCC(=O)N1C[C@H](O)C[C@H]1C(N)=O)C(C)C)[C@@H](C)O)C(C)C)[C@@H](C)O` [compound 43] (H-KCNTATCTVQRLAHQIYQFTDKAKDNVAPPTNVGSNG[Hyp]-NH2; disulfide 2-7; N-terminus assumed), the EC50 is above 5 µM on hAM1 receptor and 0.01 nM at hAMY3 receptor. Also, the “Max ThT signal (%)” value in data set [1] came to 1.200%.

Take `CC[C@H](C)[C@H](NC(=O)[C@H](CCC(N)=O)NC(=O)[C@H](Cc1c[nH]cn1)NC(=O)[C@H](C)NC(=O)[C@H](CC(C)C)NC(=O)[C@H](CCCNC(=N)N)NC(=O)[C@H](CCC(N)=O)NC(=O)[C@@H](NC(=O)[C@@H](NC(=O)[C@@H]1CSSC[C@H](NC(=O)[C@@H](N)CCCCN)C(=O)N[C@@H](CC(N)=O)C(=O)N[C@@H]([C@@H](C)O)C(=O)N[C@@H](C)C(=O)N[C@@H]([C@@H](C)O)C(=O)N1)[C@@H](C)O)C(C)C)C(=O)N[C@@H](Cc1ccc(O)cc1)C(=O)N[C@@H](CCC(N)=O)C(=O)N[C@@H](Cc1ccccc1)C(=O)N[C@H](C(=O)N[C@@H](CC(=O)O)C(=O)N[C@@H](CCCCN)C(=O)N[C@@H](CC(=O)O)C(=O)N[C@@H](CCCCN)C(=O)N[C@@H](CC(=O)O)C(=O)N[C@@H](C)C(=O)N[C@H](C(=O)N[C@@H](C)C(=O)N1CCC[C@H]1C(=O)N1CCC[C@H]1C(=O)N[C@H](C(=O)N[C@@H](CC(N)=O)C(=O)N[C@H](C(=O)NCC(=O)N[C@@H](CO)C(=O)N[C@@H](CC(N)=O)C(=O)NCC(=O)N1C[C@H](O)C[C@H]1C(N)=O)C(C)C)[C@@H](C)O)C(C)C)[C@@H](C)O` [compound 52] (H-KCNTATCTVQRLAHQIYQFTDKDKDAVAPPTNVGSNG[Hyp]-NH2; disulfide 2-7; N-terminus assumed): the concentration giving a half-maximal response (EC50) at hAM1 receptor is above 5 µM; on hAMY3 receptor it was 0.011 nM. Besides, the “Max ThT signal (%)” value in data set [1] was 7.600%.

For `CC[C@H](C)[C@H](NC(=O)[C@H](CCC(N)=O)NC(=O)[C@H](Cc1c[nH]cn1)NC(=O)[C@H](C)NC(=O)[C@H](CC(C)C)NC(=O)[C@H](CCCNC(=N)N)NC(=O)[C@H](CCC(N)=O)NC(=O)[C@@H](NC(=O)[C@@H](NC(=O)[C@@H]1CSSC[C@H](NC(=O)[C@@H](N)CCCCN)C(=O)N[C@@H](CC(N)=O)C(=O)N[C@@H]([C@@H](C)O)C(=O)N[C@@H](C)C(=O)N[C@@H]([C@@H](C)O)C(=O)N1)[C@@H](C)O)C(C)C)C(=O)N[C@@H](Cc1ccc(O)cc1)C(=O)N[C@@H](CCC(N)=O)C(=O)N[C@@H](Cc1ccccc1)C(=O)N[C@H](C(=O)N[C@@H](CC(=O)O)C(=O)N[C@@H](C)C(=O)N[C@@H](CC(=O)O)C(=O)N[C@@H](CCCCN)C(=O)N[C@@H](CC(=O)O)C(=O)N[C@@H](CC(N)=O)C(=O)N[C@H](C(=O)N[C@@H](C)C(=O)N1CCC[C@H]1C(=O)N1CCC[C@H]1C(=O)N[C@H](C(=O)N[C@@H](CC(N)=O)C(=O)N[C@H](C(=O)NCC(=O)N[C@@H](CO)C(=O)N[C@@H](CC(N)=O)C(=O)NCC(=O)N1C[C@H](O)C[C@H]1C(N)=O)C(C)C)[C@@H](C)O)C(C)C)[C@@H](C)O` [compound 64] (H-KCNTATCTVQRLAHQIYQFTDADKDNVAPPTNVGSNG[Hyp]-NH2; disulfide 2-7), the figures for the 50% effective concentration (EC50) on hAM1 receptor and at hAMY3 receptor were above 5 µM and 0.012 nM, respectively. Moreover, in data set [1], the “Max ThT signal (%)” value was found to be 2.700%.

For the compound `CC[C@H](C)[C@H](NC(=O)[C@H](CCC(N)=O)NC(=O)[C@H](Cc1c[nH]cn1)NC(=O)[C@H](C)NC(=O)[C@H](CC(C)C)NC(=O)[C@H](CCCNC(=N)N)NC(=O)[C@H](CCC(N)=O)NC(=O)[C@@H](NC(=O)[C@@H](NC(=O)[C@@H]1CSSC[C@H](NC(=O)[C@@H](N)CCCCN)C(=O)N[C@@H](CC(N)=O)C(=O)N[C@@H]([C@@H](C)O)C(=O)N[C@@H](C)C(=O)N[C@@H]([C@@H](C)O)C(=O)N1)[C@@H](C)O)C(C)C)C(=O)N[C@@H](Cc1ccc(O)cc1)C(=O)N[C@@H](CCC(N)=O)C(=O)N[C@@H](Cc1ccccc1)C(=O)N[C@@H](CC(=O)O)C(=O)N[C@@H](CCCCN)C(=O)N[C@@H](CC(=O)O)C(=O)N[C@@H](CCCCN)C(=O)N[C@@H](CC(=O)O)C(=O)N[C@@H](CC(N)=O)C(=O)N[C@H](C(=O)N[C@@H](C)C(=O)N1CCC[C@H]1C(=O)N1CCC[C@H]1C(=O)N[C@H](C(=O)N[C@@H](CC(N)=O)C(=O)N[C@H](C(=O)NCC(=O)N[C@@H](CO)C(=O)N[C@@H](CC(N)=O)C(=O)NCC(=O)N1C[C@H](O)C[C@H]1C(N)=O)C(C)C)[C@@H](C)O)C(C)C` [compound 65] (H-KCNTATCTVQRLAHQIYQFDKDKDNVAPPTNVGSNG[Hyp]-NH2; disulfide 2-7; N-terminus assumed), the figures for the EC50 at hAM1 receptor and at hAMY3 receptor were above 5 µM and 0.012 nM, respectively. The “Max ThT signal (%)” value in data set [1] was determined as 1.000%.

With `CC[C@H](C)[C@H](NC(=O)[C@H](CCC(N)=O)NC(=O)[C@H](Cc1c[nH]cn1)NC(=O)[C@H](C)NC(=O)[C@H](CC(C)C)NC(=O)[C@H](CCCNC(=N)N)NC(=O)[C@H](CCC(N)=O)NC(=O)[C@@H](NC(=O)[C@@H](NC(=O)[C@@H]1CSSC[C@H](NC(=O)[C@@H](N)CCCCN)C(=O)N[C@@H](CC(N)=O)C(=O)N[C@@H]([C@@H](C)O)C(=O)N[C@@H](C)C(=O)N[C@@H]([C@@H](C)O)C(=O)N1)[C@@H](C)O)C(C)C)C(=O)N[C@@H](Cc1ccc(O)cc1)C(=O)N[C@@H](CCC(N)=O)C(=O)N[C@@H](C)C(=O)N[C@H](C(=O)N[C@@H](CC(=O)O)C(=O)N[C@@H](CCCCN)C(=O)N[C@@H](CC(=O)O)C(=O)N[C@@H](CCCCN)C(=O)N[C@@H](CC(=O)O)C(=O)N[C@@H](CC(N)=O)C(=O)N[C@H](C(=O)N[C@@H](C)C(=O)N1CCC[C@H]1C(=O)N1CCC[C@H]1C(=O)N[C@H](C(=O)N[C@@H](CC(N)=O)C(=O)N[C@H](C(=O)NCC(=O)N[C@@H](CO)C(=O)N[C@@H](CC(N)=O)C(=O)NCC(=O)N1C[C@H](O)C[C@H]1C(N)=O)C(C)C)[C@@H](C)O)C(C)C)[C@@H](C)O` [compound 114] (H-KCNTATCTVQRLAHQIYQATDKDKDNVAPPTNVGSNG[Hyp]-NH2; disulfide 2-7; N-terminus assumed), the EC50 was above 5 µM at hAM1 receptor and 0.022 nM on hAMY3 receptor. Moreover, in data set [1], the “Max ThT signal (%)” value was 2.200%.

`CC[C@H](C)[C@H](NC(=O)[C@H](CCC(N)=O)NC(=O)[C@H](Cc1c[nH]cn1)NC(=O)[C@H](C)NC(=O)[C@H](CC(C)C)NC(=O)[C@H](CCCNC(=N)N)NC(=O)[C@H](CCC(N)=O)NC(=O)[C@@H](NC(=O)[C@@H](NC(=O)[C@@H]1CSSC[C@H](NC(=O)CN)C(=O)N[C@@H](CCCNC(=N)N)C(=O)N[C@@H](Cc2c[nH]c3ccccc23)C(=O)NCC(=O)N[C@@H]([C@@H](C)O)C(=O)N1)[C@@H](C)O)C(C)C)C(=O)N[C@@H](Cc1ccc(O)cc1)C(=O)N[C@@H](CCC(N)=O)C(=O)N[C@@H](Cc1ccccc1)C(=O)N[C@H](C(=O)N[C@@H](CC(=O)O)C(=O)N[C@@H](CCCCN)C(=O)N[C@@H](CC(=O)O)C(=O)N[C@@H](CCCCN)C(=O)N[C@@H](CC(=O)O)C(=O)N[C@@H](CC(N)=O)C(=O)N[C@H](C(=O)N[C@@H](C)C(=O)N1CCC[C@H]1C(=O)N[C@@H](CCCNC(=N)N)C(=O)N[C@@H](CO)C(=O)N[C@@H](CCCCN)C(=O)N[C@H](C(=O)N[C@@H](CO)C(=O)N1CCC[C@H]1C(=O)N[C@@H](CCC(N)=O)C(=O)N[C@H](C(=O)N1C[C@H](O)C[C@H]1C(N)=O)[C@@H](C)O)[C@@H](C)CC)C(C)C)[C@@H](C)O` [compound 150] (H-GCRWGTCTVQRLAHQIYQFTDKDKDNVAPRSKISPQT[Hyp]-NH2; disulfide 2-7; N-terminus assumed): the concentration for a half-maximal effect (EC50) on hAM1 receptor is above 5 µM; on hAMY3 receptor it was 0.04 nM. In addition, the “Max ThT signal (%)” value in data set [1] is 18.200%.

For the origin of these results see US12139520B2 (priority 2020, dated 2024).
